Measured values taken from PubChem BioAssay (NCI).
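GI50 marks 50% less growth. TGI marks complete inhibition of growth.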

Key:
Assay in all cases: DTP human tumour cell line panel, 384-well format
786-0 renal = system: 786-0 renal
A498 renal = system: A498 renal
A549 NSCLC = system: A549 NSCLC
ACHN renal = system: ACHN renal
BT-549 breast = system: BT-549 breast
CAKI-1 renal = system: CAKI-1 renal
CCRF-CEM leukemia = system: CCRF-CEM leukemia
COLO 205 colon = system: COLO 205 colon
DU-145 prostate = system: DU-145 prostate
EKVX NSCLC = system: EKVX NSCLC
HCC-2998 colon = system: HCC-2998 colon
HCT-116 colon = system: HCT-116 colon
HCT-15 colon = system: HCT-15 colon
HL-60(TB) leukemia = system: HL-60(TB) leukemia
HOP-62 NSCLC = system: HOP-62 NSCLC
HOP-92 NSCLC = system: HOP-92 NSCLC
HS 578T breast = system: HS 578T breast
HT29 colon = system: HT29 colon
IGROV1 ovarian = system: IGROV1 ovarian
K-562 leukemia = system: K-562 leukemia
KM12 colon = system: KM12 colon
LOX IMVI melanoma = system: LOX IMVI melanoma
M14 melanoma = system: M14 melanoma
MALME-3M melanoma = system: MALME-3M melanoma
MCF7 breast = system: MCF7 breast
MDA-MB-231 breast = system: MDA-MB-231 breast
MDA-MB-435 melanoma = system: MDA-MB-435 melanoma
MDA-MB-468 breast = system: MDA-MB-468 breast
MOLT-4 leukemia = system: MOLT-4 leukemia
NCI-H226 lung = system: NCI-H226 lung
NCI-H23 lung = system: NCI-H23 lung
NCI-H322M lung = system: NCI-H322M lung
NCI-H460 NSCLC = system: NCI-H460 NSCLC
NCI-H522 lung = system: NCI-H522 lung
NCI/ADR-RES ovarian = system: NCI/ADR-RES ovarian
OVCAR-3 ovarian = system: OVCAR-3 ovarian
OVCAR-4 ovarian = system: OVCAR-4 ovarian
OVCAR-5 ovarian = system: OVCAR-5 ovarian
OVCAR-8 ovarian = system: OVCAR-8 ovarian
PC-3 prostate = system: PC-3 prostate
RPMI-8226 leukemia = system: RPMI-8226 leukemia
RXF 393 renal = system: RXF 393 renal
SF-268 CNS = system: SF-268 CNS
SF-295 CNS = system: SF-295 CNS
SF-539 CNS = system: SF-539 CNS
SK-MEL-28 melanoma = system: SK-MEL-28 melanoma
SK-MEL-5 melanoma = system: SK-MEL-5 melanoma
SK-OV-3 ovarian = system: SK-OV-3 ovarian
SN12C renal = system: SN12C renal
SNB-19 CNS = system: SNB-19 CNS
SNB-75 CNS = system: SNB-75 CNS
SW-620 colon = system: SW-620 colon
T-47D breast = system: T-47D breast
TK-10 renal = system: TK-10 renal
U251 glioblastoma = system: U251 glioblastoma
UACC-257 melanoma = system: UACC-257 melanoma
UACC-62 melanoma = system: UACC-62 melanoma
UO-31 renal = system: UO-31 renal
SK-MEL-2 melanoma = system: SK-MEL-2 melanoma
SR leukemia = system: SR leukemia

## COc1cc2nc(-c3cc(F)ccc3O)nc(N[C@@H]3CNC[C@H]3C(C)(C)O)c2cc1OC
786-0 renal
  GI50: 1530 nM
  TGI: 2870 nM
A498 renal
  GI50: 1650 nM
  TGI: 3020 nM
A549 NSCLC
  GI50: 1510 nM
  TGI: 2910 nM
ACHN renal
  GI50: 1750 nM
  TGI: 3180 nM
BT-549 breast
  GI50: 1310 nM
  TGI: 2590 nM
CAKI-1 renal
  GI50: 1350 nM
  TGI: 2660 nM
CCRF-CEM leukemia
  GI50: 1410 nM
  TGI: 2730 nM
COLO 205 colon
  GI50: 1240 nM
  TGI: 2520 nM
DU-145 prostate
  GI50: 1570 nM
  TGI: 2990 nM
EKVX NSCLC
  GI50: 1460 nM
  TGI: 2790 nM
HCC-2998 colon
  GI50: 970 nM
  TGI: 2170 nM
HCT-116 colon
  GI50: 1110 nM
  TGI: 2370 nM
HCT-15 colon
  GI50: 1910 nM
  TGI: 3370 nM
HL-60(TB) leukemia
  GI50: 1820 nM
  TGI: 3240 nM
HOP-62 NSCLC
  GI50: 1220 nM
  TGI: 2490 nM
HOP-92 NSCLC
  GI50: 1150 nM
  TGI: 2380 nM
HS 578T breast
  GI50: 1740 nM
  TGI: 3130 nM
HT29 colon
  GI50: 1650 nM
  TGI: 3060 nM
IGROV1 ovarian
  GI50: 507 nM
  TGI: 1640 nM
K-562 leukemia
  GI50: 1270 nM
  TGI: 2550 nM
KM12 colon
  GI50: 1340 nM
  TGI: 2640 nM
LOX IMVI melanoma
  GI50: 1390 nM
  TGI: 2710 nM
M14 melanoma
  GI50: 1830 nM
  TGI: 3250 nM
MALME-3M melanoma
  GI50: 1600 nM
  TGI: 2960 nM
MCF7 breast
  GI50: 1570 nM
  TGI: 2950 nM
MDA-MB-231 breast
  GI50: 1400 nM
  TGI: 2700 nM
MDA-MB-435 melanoma
  GI50: 1950 nM
  TGI: 3390 nM
MDA-MB-468 breast
  GI50: 1770 nM
  TGI: 3170 nM
MOLT-4 leukemia
  GI50: 1530 nM
  TGI: 2870 nM
NCI-H226 lung
  GI50: 1400 nM
  TGI: 2760 nM
NCI-H23 lung
  GI50: 1440 nM
  TGI: 2770 nM
NCI-H322M lung
  GI50: 1630 nM
  TGI: 3020 nM
NCI-H460 NSCLC
  GI50: 1470 nM
  TGI: 2890 nM
NCI-H522 lung
  GI50: 1040 nM
  TGI: 2220 nM
NCI/ADR-RES ovarian
  GI50: 2240 nM
  TGI: 4990 nM
OVCAR-3 ovarian
  GI50: 1820 nM
  TGI: 3230 nM
OVCAR-4 ovarian
  GI50: 2390 nM
  TGI: 3880 nM
OVCAR-5 ovarian
  GI50: 1670 nM
  TGI: 3110 nM
OVCAR-8 ovarian
  GI50: 1690 nM
  TGI: 3090 nM
PC-3 prostate
  GI50: 1560 nM
  TGI: 2920 nM
RPMI-8226 leukemia
  GI50: 1830 nM
  TGI: 3250 nM
RXF 393 renal
  GI50: 1560 nM
  TGI: 2910 nM
SF-268 CNS
  GI50: 434 nM
  TGI: 1620 nM
SF-295 CNS
  GI50: 1880 nM
  TGI: 3300 nM
SF-539 CNS
  GI50: 1260 nM
  TGI: 2540 nM
SK-MEL-28 melanoma
  GI50: 2010 nM
  TGI: 3440 nM
SK-MEL-5 melanoma
  GI50: 1500 nM
  TGI: 2850 nM
SK-OV-3 ovarian
  GI50: 1820 nM
  TGI: 3240 nM
SN12C renal
  GI50: 1480 nM
  TGI: 2810 nM
SNB-19 CNS
  GI50: 1790 nM
  TGI: 3210 nM
SNB-75 CNS
  GI50: 1250 nM
  TGI: 2510 nM
SW-620 colon
  GI50: 1820 nM
  TGI: 3240 nM
T-47D breast
  GI50: 2460 nM
  TGI: 3940 nM
TK-10 renal
  GI50: 1630 nM
  TGI: 3050 nM
U251 glioblastoma
  GI50: 1860 nM
  TGI: 3280 nM
UACC-257 melanoma
  GI50: 1710 nM
  TGI: 3100 nM
UACC-62 melanoma
  GI50: 1620 nM
  TGI: 2990 nM
UO-31 renal
  GI50: 1810 nM
  TGI: 3220 nM

## C=CCN1CC(=O)N2[C@@H](Cc3ccc(O)cc3F)C(=O)N(Cc3cccc(N4CC(N5CCN(CC)CC5)C4)n3)C[C@@H]2N1C(=O)NCc1ccccc1
786-0 renal
  GI50: 35.9 nM
  TGI: 680 nM
A498 renal
  GI50: 35.4 nM
  TGI: 232 nM
A549 NSCLC
  GI50: 31.5 nM
  TGI: 3130 nM
ACHN renal
  GI50: 231 nM
  TGI: 1990 nM
BT-549 breast
  GI50: 27.6 nM
  TGI: 98.4 nM
CAKI-1 renal
  GI50: 30 nM
  TGI: 105 nM
CCRF-CEM leukemia
  GI50: 29.8 nM
  TGI: 231 nM
COLO 205 colon
  GI50: 19.8 nM
  TGI: 80.3 nM
DU-145 prostate
  GI50: 59.4 nM
  TGI: 23000 nM
HCC-2998 colon
  GI50: 41.3 nM
  TGI: 398 nM
HCT-116 colon
  GI50: 23.9 nM
  TGI: 296 nM
HCT-15 colon
  GI50: 315 nM
  TGI: 3760 nM
HL-60(TB) leukemia
  GI50: 57.8 nM
  TGI: 293 nM
HOP-62 NSCLC
  GI50: 32.3 nM
  TGI: 190 nM
HOP-92 NSCLC
  GI50: 13.9 nM
  TGI: 46.4 nM
HT29 colon
  GI50: 52.1 nM
  TGI: 12900 nM
IGROV1 ovarian
  GI50: 23.1 nM
  TGI: 59.9 nM
K-562 leukemia
  GI50: 35.9 nM
  TGI: 18100 nM
KM12 colon
  GI50: 36.8 nM
  TGI: 32300 nM
LOX IMVI melanoma
  GI50: 33.7 nM
  TGI: 98.7 nM
M14 melanoma
  GI50: 32.1 nM
  TGI: 196 nM
MALME-3M melanoma
  GI50: 23 nM
  TGI: 63.1 nM
MCF7 breast
  GI50: 472 nM
  TGI: 46400 nM
MDA-MB-231 breast
  GI50: 10.8 nM
  TGI: 34.9 nM
MDA-MB-435 melanoma
  GI50: 60.8 nM
  TGI: 32400 nM
MDA-MB-468 breast
  GI50: 28.5 nM
  TGI: 87.3 nM
MOLT-4 leukemia
  GI50: 10.4 nM
  TGI: 22.6 nM
NCI-H226 lung
  GI50: 28.4 nM
  TGI: 372 nM
NCI-H23 lung
  GI50: 24 nM
  TGI: 91.2 nM
NCI-H322M lung
  GI50: 54.6 nM
  TGI: 2210 nM
NCI-H460 NSCLC
  GI50: 21.7 nM
  TGI: 90.4 nM
NCI-H522 lung
  GI50: 16.2 nM
  TGI: 82.7 nM
NCI/ADR-RES ovarian
  GI50: 3130 nM
  TGI: 23600 nM
OVCAR-3 ovarian
  GI50: 24.4 nM
  TGI: 84.6 nM
OVCAR-4 ovarian
  GI50: 23.2 nM
  TGI: 74.1 nM
OVCAR-5 ovarian
  GI50: 20.4 nM
  TGI: 66.1 nM
OVCAR-8 ovarian
  GI50: 23.8 nM
  TGI: 282 nM
PC-3 prostate
  GI50: 27.8 nM
  TGI: 91.1 nM
RPMI-8226 leukemia
  GI50: 17.8 nM
  TGI: 33.9 nM
RXF 393 renal
  GI50: 62.5 nM
  TGI: 593 nM
SF-295 CNS
  GI50: 79.8 nM
  TGI: 528 nM
SF-539 CNS
  GI50: 21.5 nM
  TGI: 71.9 nM
SK-MEL-2 melanoma
  GI50: 20.6 nM
  TGI: 83.1 nM
SK-MEL-28 melanoma
  GI50: 25.9 nM
  TGI: 77 nM
SK-MEL-5 melanoma
  GI50: 24.3 nM
  TGI: 70.6 nM
SK-OV-3 ovarian
  GI50: 25.5 nM
  TGI: 68.7 nM
SN12C renal
  GI50: 47.4 nM
  TGI: 18600 nM
SNB-19 CNS
  GI50: 25 nM
  TGI: 226 nM
SR leukemia
  GI50: 26.2 nM
  TGI: 58.4 nM
SW-620 colon
  GI50: 84.7 nM
  TGI: > 100000 nM
T-47D breast
  GI50: 27.2 nM
  TGI: 193 nM
TK-10 renal
  GI50: 52.6 nM
  TGI: 637 nM
U251 glioblastoma
  GI50: 23.6 nM
  TGI: 88.8 nM
UACC-257 melanoma
  GI50: 50.2 nM
  TGI: 333 nM
UACC-62 melanoma
  GI50: 21.4 nM
  TGI: 67.5 nM
UO-31 renal
  GI50: 408 nM
  TGI: 3690 nM
